In paper PMC3283556, “The Activities of Current Antimalarial Drugs on the Life Cycle Stages of Plasmodium: A Comparative Study with Human and Rodent Parasites” (PLoS Medicine, 2012):
Entries after “also recorded” stand apart in the source; their conditions may differ. Like-named read-outs stand apart in the source and are kept apart here.

Experiments:
[1] = tested on: P. falciparum mature gametocytes / male gamete exflagellation; assay: P. falciparum exflagellation assay; assay type: cell-based, Plasmodium falciparum; details: for inhibition at 10 µM: Plasmodium falciparum
[2] = tested on: P. yoelii liver stage parasites (liver schizonts); assay: P. yoelii liver stage assay in HepG2 cells (EEF immunofluorescence); assay type: cell-based, Plasmodium yoelii; details: for IC50: Plasmodium yoelii
HepG2 cells = assay: Growth retardation of HepG2 cells; details: for IC50: Homo sapiens, HepG2, read-out: IC50 HepG2
Plasmodium oocysts = assay: Oocyst development / sporogony, Plasmodium species not stated at the place; assay type: in vivo; details: for inhibition at 10 µM: Plasmodium, box linked to oocysts, read-out: Inhibition at 10 μM (oocysts, Figure 5)
Protocol: Membrane feeds were performed as described previously. Briefly, PbGFPcon-infected mouse blood was mixed with compounds, immediately placed into membrane feeders (39°C) and offered for 30 min to 80–100 overnight-starved A. stephensi (SDA 500 strain). After 7–9 d at 19°C/80%RH, mosquito midguts were dissected out. Midguts were fixed with paraformaldehyde and oocyst number was determined microscopically by semi-automated analysis as previously described.
Gametocyte cultures were produced according to the same protocol as the Pf exflagellation assay. Pooled gametocyte cultures were evenly divided between compounds in fresh medium and incubated at 37°C for 24 h. The parasite pellets were then resuspended in fresh RBCs and human serum treated with the compounds to a 50% haematocrit and immediately fed to mosquitoes as described above and then maintained at 27°C/60%RH for 10–12 d before dissection and counting. […]

[3] = tested on: P. falciparum asexual blood stage parasites (strains NF54, D6, K1, W2, 7G8, TM90C2A, V1/S); assay: [3H]-hypoxanthine incorporation growth inhibition assay, asexual blood stage; assay type: cell-based, Plasmodium falciparum; details: Plasmodium falciparum
[4] = 10 µM, 24 h exposure of mature gametocytes

**Q.** Which results are given for `COc1cc(N[C@H](C)CCCN)c2nccc(C)c2c1Oc1ccc(Cl)c(Cl)c1` [NPC-1161B]?
**A.** effect on exflagellation (words) [1, 4]: inhibited exflagellation totally; also recorded: inhibit exflagellation in vitro; also recorded: inhibited both exflagellation and oocyst production; effect on exflagellation (words) ([1]; 10 µM, 24 h exposure of mature gametocytes, listed as NPC1161-B): showed potency; inhibition at 10 µM ([1]; read-out: inhibition of exflagellation, 10 µM, 24 h exposure of mature gametocytes): > 70%; inhibition at 10 µM ([1]; 10 μM, box linked to gametocytes/exflagellation, read-out: Inhibition at 10 μM (gametocytes/exflagellation, Figure 5)): > 60%; IC50 ([2]; HepG2, box linked to liver schizont, read-out: IC50 (liver schizont, Figure 5)): < 1000 nM; IC50 ([2]; development of P. yoelii liver schizonts following infection of HepG2 cells, read-out: IC50 Parasite): 720 ± 70 nM; potency range against liver stages ([2]; dose response): submicromolar range; IC50 (HepG2 cells): 840 ± 460 nM; CI (cytotoxicity index) (HepG2 cells; IC50 HepG2 compared to IC50 parasite): 1.17; inhibition at 10 µM (Plasmodium oocysts): > 90%; effect on sporogony / oocyst production (Plasmodium oocysts; species not given): inhibits sporogony; also recorded: inhibit exflagellation in vitro and oocyst production in the mosquito vector; also recorded: inhibited both exflagellation and oocyst production; IC50 ([3]; strain 7G8): ~50 nM; IC50 ([3]; strain NF54): ~500 nM

**Q.** How did the “effect on exflagellation (words)” value [1, 4] turn out when `CCCCN(CCCC)CCC(O)c1cc2c(Cl)cc(Cl)cc2c2cc(C(F)(F)F)ccc12` (stereo not drawn) [halofantrine] was run?
**A.** Its value is “only moderate or no inhibition of exflagellation”.

**Q.** What about the “enhancement (stimulation) of exflagellation” value [1, 4] of the same compound?
**A.** Its value is 45%.

**Q.** What about the IC50 ([2]; HepG2, development of P. yoelii liver schizonts following infection of HepG2 cells, read-out: IC50 Parasite) of the same compound?
**A.** The IC50 was 2320 ± 1350 nM.

**Q.** And the IC50 (HepG2 cells)?
**A.** The IC50 was under 5660 nM.

**Q.** And the “CI (cytotoxicity index)” value (HepG2 cells; human, 48 h)?
**A.** The value was under 2.44.

**Q.** What about the inhibition at 10 µM (Plasmodium oocysts) of the same compound?
**A.** The inhibition at 10 µM was over 90%.

**Q.** And the IC50 [3]?
**A.** Its IC50 is under 4 nM.

**Q.** And the IC50 ([3]; multi-drug-resistant strains K1, W2 and 7G8)?
**A.** Its IC50 is 0.3 nM.
